Key:
[1] = target: HOIP PUB domain; details: ref [25],[27],[34]; cited from earlier work
From the text: (§1) UBXD1, PNGase, and HOIP PUB domains bind the p97-PIM peptide with KDs in the low µM range and a 1:1 stoichiometry (Table 2, Figure 4, Figure 5 and Figure S2, and [25, 27, 34]). The KD of HOIP for the OTULIN- and SPATA2-PIMs, however, is 50 times lower and lies in the nM range, which maybe reflects that these complexes either operate at lower concentrations in the cell or a have a lesser need to exchange their binding partners. p97, on the other hand, might need to swap cofactors more readily either within one pathway or to switch between different pathways.

[2] = target: PNGase PUB domain; details: ref [25],[27],[34]; cited from earlier work
From the text: as §1

[3] = target: T1, UBXD1 PUB domain (Homo sapiens, UniProt Q9BZV1); assay: p97-PIM peptide binding to UBXD1 PUB domain (summary); details: isolated p97-PIM peptide
T1 construct: N-terminal hexahistidine-tagged UBXD1-PUB (150–264) was cloned into a pET28a expression vector; hexahistidine (His6) (N); made in house
T1 sequence (Q9BZV1 150-264): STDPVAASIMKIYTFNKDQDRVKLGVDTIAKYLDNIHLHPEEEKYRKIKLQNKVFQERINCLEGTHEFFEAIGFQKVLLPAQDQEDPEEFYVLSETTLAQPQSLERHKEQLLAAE
Procedure: Fluorescence anisotropy measurements (excitation: 495 nm; emission 518 nm) were carried out on a JASCO FP-8300 fluorescence spectrometer in 50 mM NaKPi, pH 6.5 at 25 °C, titrating PUB constructs to 5,6-FAM labeled p97-C10 peptide (100 nM). All titrations were performed in triplicate. Binding curves of the averaged data were fitted with GraphPad Prism 5.0 (GraphPad) using the quadratic binding equation for a one-site specific binding model:(3) r=r0+rmax⋅(F+x+KD)−(F+x+KD)^2−4⋅x⋅F/2⋅F, with r = anisotropy, r0 = anisotropy without protein, rmax = maximum anisotropy, F = fluorescent probe (labeled peptide or protein) concentration, x = titrant protein concentration, and KD = dissociation constant.
ITC measurements were performed in triplicate with a MicroCal iTC2000 (Malvern Pananalytical). UBXD1-PUB (100 µM) was titrated with 1 mM of p97-C10 peptide in 50 mM NaKPi buffer (pH 6.5) at 25 °C in 40 steps with a volume of 0.5 µL for the first 9 steps and 1.0 µL for the remaining ones.

[4] = target: T2, UBXD1-PUB (Homo sapiens, UniProt Q9BZV1); assay: 15N-HSQC NMR titration of 15N-labeled UBXD1-PUB with p97 peptides; assay type: binding; details: 50 mM NaKPi pH 6.5, 25 °C; for binding in 15N-HSQC NMR titration: phosphorylated p97-C13-pY805, 270 µM protein, up to 1.25 mM peptide, 1.2 mM or 1.1 mM (Figure S1)
T2 construct: N-terminal hexahistidine-tagged UBXD1-PUB (150–264) was cloned into a pET28a expression vector; hexahistidine (His6) (N); made in house
T2 sequence (Q9BZV1 150-264): T1 sequence (Q9BZV1 150-264)
Procedure: The NMR samples contained 200–800 µM of ^15N,^13C- or ^15N-labeled protein in 50 mM NaKPi pH 6.5, 90%/10% (v/v) H2O/D2O. ^13C(aliphatic)-COSY and TOCSY experiments were measured in the same buffer with 100% D2O. All spectra were recorded at 25 °C on a 700 MHz Bruker Ultrashield NMR spectrometer equipped with a 5 mm TCI (^1H/^13C/^15N) triple resonance cryoprobe head. Spectra were processed with Topspin 3.5 (Bruker) and analyzed with CARA [42].
To 362 μM ^15N-labeled UBXD1-PUB, the p97-C10 or p97-C13 peptides were added stepwise to a final concentration of 1.1 mM. For the titration of the phosphorylated p97-C13-pY^805 peptide to the PUB domain, the protein concentration was 270 µM, and the peptide was titrated to a final concentration of 1.2 mM. After each addition, the ^1H,^15N-HSQC spectrum was recorded.
The chemical shift perturbation Δδtotal was calculated from the ^1H- and ^15N-shifts according to Equation (1) using the spectra with no peptide and the highest concentration of peptide, where ΔδN and ΔδH represent the chemical shift perturbation value of the amide nitrogen and proton, respectively:(1) Δδtotal=(ΔδH)^2+(0.154⋅ΔδN)^2.

p97-PIM peptide: PUB interacting motif (PIM) in the p97 C-terminus (TEDNDDDLYG)
KD of PUB domain for p97-PIM peptide [1]: low µM range
KD of PUB domain for p97-PIM peptide [2]: low µM range
KD of PUB domain for p97-PIM peptide [3]: low µM range

SVYTEDNDDDLYG [p97-C13]
chemical shift perturbations (CSPs) Δδtotal ([4]; 362 μM 15N-UBXD1-PUB, peptide to 1.1 mM, resonances between second and fourth α-helix): > 0.2 ppm

SVYTEDNDDDLpYG [phosphorylated p97-C13]
binding in 15N-HSQC NMR titration [4]: no
binding in 15N-HSQC NMR titration ([4]; listed as p97-C13 peptide carrying a phosphorylated pY805): did not show any binding

— paper PMC6995525, “Structure of the PUB Domain from Ubiquitin Regulatory X Domain Protein 1 (UBXD1) and Its Interaction with the p97 AAA+ ATPase” (Biomolecules, 2019)
